From patent US9321742B2, “N1-cyclic amine-N5-substituted biguanide derivatives, methods of preparing the same and pharmaceutical composition comprising the same” (IMMUNOMET THERAPEUTICS INC., priority 2011, dated 2016) come the findings set out here.

One data set relates to AMPKα. Put plainly: Measurement of AMPK-activation effect (AMPKα Thr172 phosphorylation immunoassay in MCF7 cells). The data set is classed as cell-based, human. Particulars: 24 hours; for AMPK activation effect 10 uM (%) / AMPK activation effect 50 uM (%): relative to untreated cells. As for the experimental part:
MCF7 cells derived from human breast cancer cells (commercially available from the Korean Cell Line Bank) were used, and the AMPK (5′-AMP-activated protein kinase alpha)-activation effect of the biguanide derivative was confirmed using an AMPKα immunoassay kit (Invitrogen, Catalog No. KH00651).
MCF7 cells were cultured in a DMEM medium supplemented with 10% fetal bovine serum. Thereafter, the cultured MCF7 cells were put into a 6-well plate with approximately 5×10^5 cells per well and cultured in an incubator supplied with 5% CO2. Culture media were treated with the derivatives synthesized in the examples at contents of 5, 10 and 50 μM, and then cultured for 24 hours. Metformin hydrochloride was used as the control, and the culture media were treated with 0.05, 0.5, 1, 2, 5 and 10 mM metformin hydrochloride, and then tested in the same manner as described in the derivatives synthesized in the examples. Subsequently, the cells were lysed according to a method presented in the operation manual of the AMPKα immunoassay kit, and 20 μg of a cell lysate was then yielded through protein assay. Thereafter, the AMPK activation effect was obtained by determining the degree of phosphorylation of 172nd threonine residue (Thr172) of the AMPKα from the cell lysate according to the method presented in the operation manual of the AMPKα immunoassay kit. […] A curve graph showing AMPK activation according to the concentration of the treated compounds was plotted based on the obtained AMPKα activation results, the concentration (activation concentration 150, AC150) value of the compound whose AMPK activation reached 150% was calculated using a GraphPad Prism 5.0 program, and the degrees of AMPK activation were obtained when concentrations of the treated biguanide derivatives were 10 μM and 50 μM and the metformin hydrochloride was 50 μM.

In another data set the test system is HCT116 cells. The data set can be described thus: Measurement of effect of inhibiting cancer cell proliferation (MTT). The data set is classed as cell-based. Conditions: Homo sapiens; for inhibition at 100 µM: HCT-116, 100 uM, 48 hours, read-out: Cell Growth Inhibition (%) at 100 uM; for GI50: HCT-116, 48 hours. The source says: HCT116 cells derived from human colorectal cancer (commercially available from the Korean Cell Line Bank) were used, and the effect of inhibiting cancer cell proliferation of the biguanide derivative was confirmed by measuring the concentration value (cell growth inhibition concentration, GIC50) at which cell growth was inhibited by 50% using a 3-(4,5-dimethylthiazol-2-yl)-2,5-[…] bromide (MTT) reagent.
First, HCT116 cells were put on a 96-well plate and cultured in a DMEM medium containing 10% fetal bovine serum for 16 hours so that the cellcount in each well was approximately 5,000. Subsequently, to obtain the GIC50 value of each compound, culture media were treated with 100 μM, 25 μM, 6.25 μM, 1.56 μM or 0.39 μM of the compound, and then cultured for 48 hours. At this time, some of the compounds were treated with 200 μM instead of 100 μM. Metformin hydrochloride was used as the control, and the culture media were treated with 25, 12.5, 2.5, 0.5, 0.1 mM metformin hydrochloride, and then tested in the same manner as described in the derivatives synthesized in the examples. In order to determine whether the cells survived after treatment with the compound, MTT was added to the culture media which were then cultured for another 3 hours. Formed formazane crystals were dissolved using dimethyl sulfoxide (DMSO), and the absorbance of the resulting solution was measured at 560 nm. After the 48-hours culture, the ratio of the cell count cultured on a well plate not treated with the compound to the living cell count on a well plate treated with the compounds synthesized in the examples was indicated as cell viability (%) according to each treated concentration. A cell viability curve graph was plotted and the concentration (GIC50) value of the compound at which the growth was inhibited by 50% was calculated to confirm the effect of inhibition of cancer cell proliferation. Also, the cell growth viability (%) when the concentration of the treated biguanide derivative and the metformin hydrochloride as the control were 100 uM was shown.

With `Cl.N=C(NCc1ccc(C(F)(F)F)cc1)NC(=N)N1CCCC1` [Example 38, N1-pyrrolidine-N5-(4-trifluoromethyl)benzyl biguanide hydrochloride], the melting point (as a rule, the temperature, or range, at which the solid turns liquid) was in the range of 268 to 270 °C. In the data set on AMPKα, the “AMPK activation effect 10 uM (%)” value turned out to be 116%, the “AMPK activation effect 50 uM (%)” value was determined as 213% and the “AC150 (concentration at which AMPK activation reached 150%)” value came to 1.4 µM. In the data set on HCT116 cells, the inhibition (in general, the change of the read-out against control, counted positive when it falls) at 100 µM came to 61.6% and growth was halved (GI50) at 32.4 µM.
`Cl.N=C(NC(=N)N1CCCCC1)NC1CCCCC1` [Example 16, N1-piperidine-N5-cyclohexyl biguanide hydrochloride] yielded a melting point of 214 to 215 °C. Moreover, in the data set on AMPKα, the “AMPK activation effect 10 uM (%)” value is given as 167%, the “AMPK activation effect 50 uM (%)” value was 486% and the “AC150 (concentration at which AMPK activation reached 150%)” value amounted to 8.0 µM. For the same compound, in the data set on HCT116 cells, the inhibition at 100 µM came out at 49.1% and the concentration for 50% growth inhibition (GI50) – broadly, the concentration giving 50% growth inhibition – was more than 100 µM.
In turn, `Cl.N=C(NCc1ccc(Br)cc1)NC(=N)N1CCCC1` [Example 34, N1-pyrrolidine-N5-(4-bromo)benzyl biguanide hydrochloride] showed a melting point of 267 to 268 °C. In addition, in the data set on AMPKα, the “AMPK activation effect 10 uM (%)” value came out at 467%, the “AMPK activation effect 50 uM (%)” value was found to be 639% and the “AC150 (concentration at which AMPK activation reached 150%)” value came out at 42.4 µM. In the data set on HCT116 cells, the inhibition at 100 µM was determined as 97.3% and growth was halved (GI50) at 92.8 µM.
On to `Cl.N=C(NCc1ccc(Cl)cc1Cl)NC(=N)N1CCCCC1` [Example 53, N1-piperidine-N5-(2,4-dichloro)benzyl biguanide hydrochloride], for which the melting point lay in the range of 240 to 241 °C. For the same compound, in the data set with AMPKα, the “AMPK activation effect 10 uM (%)” value was determined as 238%, the “AMPK activation effect 50 uM (%)” value is 831% and the “AC150 (concentration at which AMPK activation reached 150%)” value stood at 3.5 µM. Moreover, in the data set on HCT116 cells, the inhibition at 100 µM stood at 63.7% and the GI50 is 9.1 µM.
With `Cl.N=C(NCc1ccc(F)c(C(F)(F)F)c1)NC(=N)N1CCCCC1` [Example 44, N1-piperidine-N5-(4-fluoro-3-trifluoromethyl)benzyl biguanide hydrochloride], the melting point fell in the range of 232 to 235 °C. Also, in the data set with AMPKα, the “AMPK activation effect 10 uM (%)” value is given as 180%, the “AMPK activation effect 50 uM (%)” value stood at 383% and the “AC150 (concentration at which AMPK activation reached 150%)” value came out at 10.3 µM. For the same compound, in the data set on HCT116 cells, the inhibition at 100 µM amounted to 32.6% and the GI50 is 15.2 µM.
As for `Cl.N=C(NCc1ccco1)NC(=N)N1CCCC1` [Example 22, N1-pyrrolidine-N5-(furan-2-ylmethyl)biguanide hydrochloride], the melting point was in the range of 242 to 243 °C. Also, in the data set with AMPKα, the “AMPK activation effect 10 uM (%)” value came to 101%, the “AMPK activation effect 50 uM (%)” value is reported as 293% and the “AC150 (concentration at which AMPK activation reached 150%)” value was 18.3 µM. In addition, in the data set with HCT116 cells, the inhibition at 100 µM was found to be 43.9% and the GI50 was more than 100 µM.
Take `Cl.N=C(NCc1cccs1)NC(=N)N1CCCCC1` [Example 24, N1-piperidine-N5-(thiophene-2-ylmethyl)biguanide hydrochloride]: the melting point lay within 220 to 221 °C. In addition, in the data set with AMPKα, the “AMPK activation effect 10 uM (%)” value is reported as 64%, the “AMPK activation effect 50 uM (%)” value is reported as 112% and the “AC150 (concentration at which AMPK activation reached 150%)” value is more than 50 µM. For the same compound, in the data set on HCT116 cells, the inhibition at 100 µM was found to be 51.7% and the concentration for 50% growth inhibition (GI50) turned out to be 93.2 µM.
Take `Cl.N=C(NCc1ccc(C(F)(F)F)c(Cl)c1)NC(=N)N1CCCCC1` [Example 47, N1-piperidine-N5-(3-chloro-4-trifluoromethyl)benzyl biguanide hydrochloride]: the melting point is 254 to 256 °C. Moreover, in the data set on AMPKα, the “AMPK activation effect 10 uM (%)” value came out at 433%, the “AMPK activation effect 50 uM (%)” value is reported as 384% and the “AC150 (concentration at which AMPK activation reached 150%)” value amounted to 4.4 µM. In the data set on HCT116 cells, the inhibition at 100 µM was determined as 100% and halving of growth (GI50) required 7.4 µM.
